Laboratory results reported in PubChem BioAssay (NCI).
Where “and” joins values, the source holds several entries; their conditions need not be identical. Identical values can stand only once.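 1) Cells in 96-well plates. 2) Compound, 48 h, 5 concentrations. 3) Linear interpolation between surrounding doses. 4) Unreached endpoint = highest concentration. GI50 is the concentration that inhibits growth by half. TGI is the concentration that stops growth completely.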

What was measured:
Experiment in all cases: NCI tumour cell line growth inhibition, 48 h
A498 renal = test system: A498 renal
DU-145 prostate = test system: DU-145 prostate
HOP-62 NSCLC = test system: HOP-62 NSCLC
LOX IMVI melanoma = test system: LOX IMVI melanoma
MOLT-4 leukemia = test system: MOLT-4 leukemia
RXF 393 renal = test system: RXF 393 renal
SK-MEL-28 melanoma = test system: SK-MEL-28 melanoma
SK-OV-3 ovarian = test system: SK-OV-3 ovarian
SNB-75 CNS = test system: SNB-75 CNS
UO-31 renal = test system: UO-31 renal

Row | SMILES | GI50 (A498 renal) | TGI (A498 renal) | GI50 (DU-145 prostate) | TGI (DU-145 prostate) | GI50 (HOP-62 NSCLC) | TGI (HOP-62 NSCLC) | GI50 (LOX IMVI melanoma) | TGI (LOX IMVI melanoma) | GI50 (MOLT-4 leukemia) | TGI (MOLT-4 leukemia) | GI50 (RXF 393 renal) | TGI (RXF 393 renal) | GI50 (SK-MEL-28 melanoma) | TGI (SK-MEL-28 melanoma) | GI50 (SK-OV-3 ovarian) | TGI (SK-OV-3 ovarian) | GI50 (SNB-75 CNS) | TGI (SNB-75 CNS) | GI50 (UO-31 renal) | TGI (UO-31 renal)
1 | C[C@@H](N)C1CCC(C(=O)Nc2ccncc2)CC1 (some centres not stated) | > 100 µM | > 100 µM | > 100 µM | > 100 µM | > 100 µM | > 100 µM | > 100 µM | > 100 µM | > 100 µM | > 100 µM | > 100 µM | > 100 µM | > 100 µM | > 100 µM | > 100 µM | > 100 µM | 5.58 µM | > 100 µM | > 34.1 µM | > 100 µM
2 | CCN(CC)CC.CCOc1ccc(NC(=O)N=C=[N-])cc1.[CH-]1CCCCC1.[CH-]1CCCCC1.[CH-]1CCCCC1.[Cl-].[Sn+4] | 0.0423 µM | 0.0959 µM | 0.0617 µM | 0.19 µM | 0.122 µM | 0.234 µM | 0.0157 µM | 0.0483 µM | 0.0281 µM | 0.233 µM | 0.0146 µM | 0.0336 µM | 0.0349 µM | 0.088 µM | 0.0466 µM | 0.118 µM | 0.0244 µM | 0.108 µM | 0.0452 µM | 0.0928 µM
3 | COC(=O)C(Cc1cnc[nH]1)NC(=O)CNC(=O)CCCn1c(=O)c2c3ccccc3n(C)c2n2nnc(-c3ccccc3)c12 (configuration not stated) | > 100 µM | > 100 µM | > 100 µM | > 100 µM | > 100 µM | > 100 µM | > 100 µM | > 100 µM | > 100 µM | > 100 µM | > 100 µM | > 100 µM | > 100 µM | > 100 µM | > 100 µM | > 100 µM | > 100 µM | > 100 µM | > 100 µM | > 100 µM
4 | COc1c2c3ccccc3nc-2n(C)c2ccccc12 | 10.1 µM | 24.8 µM | 9.48 µM | 45.5 µM | 8.61 µM | 33.6 µM | 4.73 µM | 26.3 µM | 4.7 µM | > 100 µM | 21.3 µM | 78.1 µM | 14.7 µM | 36.9 µM | – | – | 14.1 µM | 35.4 µM | 29.1 µM | > 100 µM
5 | CCOC(=O)C(Cc1c[nH]c2ccc([N+](=O)[O-])cc12)(NC(C)=O)C(=O)OCC | 8.18 µM | > 390 µM | > 714 µM | > 1000 µM | 304 µM | > 606 µM | > 419 µM | > 1000 µM | 35.2 µM | > 1000 µM | 66.4 µM | 261 µM | 975 µM | > 1000 µM | 184 µM | > 907 µM | 59.2 µM | 215 µM | 80.3 µM | > 1000 µM
6 | O=C(CCCCCCCn1cc(-c2cccnc2)nn1)Nc1ccccc1-c1ccccc1 | 13.7 µM | > 86.1 µM | 0.569 µM | > 100 µM | 26.2 µM | > 100 µM | 4.05 µM | > 100 µM | 2.31 µM | 23.4 µM | > 43.6 µM | > 100 µM | 13.2 µM | > 95 µM | 12.5 µM | > 100 µM | 29.8 µM | > 100 µM | 5.24 µM | 47 µM
7 | COc1ccccc1/C=C/C(=O)c1c(O)cc2occc2c1OC | 46 µM | > 100 µM | 23.5 µM | > 100 µM | 19.3 µM | 43.9 µM | 30.1 µM | > 100 µM | – | – | 14.9 µM | 42.6 µM | > 100 µM | > 100 µM | 21.3 µM | 84.4 µM | 7.49 µM | 26.3 µM | > 100 µM | > 100 µM
8 | O=C(N/N=C/c1ccccc1O)C(O)(c1ccccc1)c1ccccc1 | > 100 µM | > 100 µM | > 100 µM | > 100 µM | 7.37 µM | > 100 µM | 5.09 µM | > 100 µM | 4.46 µM | > 100 µM | > 100 µM | > 100 µM | > 100 µM | > 100 µM | > 100 µM | > 100 µM | > 100 µM | > 100 µM | 2 µM | > 100 µM
9 | Cc1nc2ccccn2c1NC(=O)NNC(=S)Nc1ccc(Br)cc1 | 32.8 µM | 88.1 µM | 45.9 µM | > 100 µM | 35.2 µM | > 100 µM | 24 µM | 67.3 µM | 36.7 µM | > 100 µM | 52.6 µM | > 100 µM | 33 µM | 94 µM | 33 µM | 82.8 µM | 26.1 µM | 67.5 µM | 82.5 µM | > 100 µM
10 | Cc1cc(C(=O)Nc2nc3cccc(Cl)c3n2[C@@H]2CCCCN(C(=O)/C=C/CN(C)C)C2)ccn1 | 0.514 µM | 14.1 µM | 6.19 µM | 45.2 µM | 12.5 µM | 27.4 µM | 10.1 µM | 23.9 µM | 7.13 µM | 33.3 µM | 9.35 µM | 25.1 µM | 12.8 µM | 27 µM | 0.0792 µM | 9.03 µM | 5.63 µM | 19 µM | 2.71 µM | 20.3 µM
11 | C[C@H](N)C(=O)N[C@@H]1[C@H]2C(=C(O)C[C@@H](O)[C@@H]2O)C(=O)O[C@]1(C)C(Cl)Cl | – | 2.27 µM and 1.56 µM | 0.372 µM | – | 0.297 µM | 1.85 µM and 1.29 µM | 0.106 µM | 0.454 µM and 0.675 µM | 0.186 µM and 0.13 µM | 3.79 µM and 0.564 µM | – | 0.828 µM and 1.08 µM | – | 2.75 µM and 1.65 µM | 0.2 µM | 2.25 µM and 1.95 µM | 0.226 µM | 3.85 µM and 1.07 µM | 0.763 µM | 5.47 µM and 5.41 µM
12 | O=C(c1ccc(OCCN2CCCCC2)cc1)c1c(-c2ccc(O)cc2)sc2cc(O)ccc12 | 11.6 µM | 26.2 µM | 11.7 µM and 14.9 µM | 23.9 µM and 30.2 µM | 10.4 µM and 15.4 µM | 22.2 µM and 43.8 µM | 1.76 µM and 4.06 µM | 3.45 µM and 15.1 µM | 2.8 µM and 4.86 µM | 10.8 µM and 23.2 µM | 5.2 µM and 4.32 µM | 19.1 µM and 15.9 µM | 12.3 µM and 6.65 µM | 25.1 µM and 23.6 µM | 11.3 µM and 14.2 µM | 23.3 µM and 30.4 µM | 7.55 µM and 8.56 µM | 20.6 µM and 23.6 µM | 10.1 µM and 9.8 µM | 22.3 µM and 27.7 µM
